Experiments:
[1] = biological target: Casein kinase I isoform delta (Homo sapiens) (UniProt P48730); assay: Residual activity of CK1delta at 10 uM by microplate scintillation counting
[2] = biological target: Mitogen-activated protein kinase 10 (Homo sapiens) (UniProt P53779); assay: Residual activity of JNK3 at 0.1 uM by microplate scintillation counting
[3] = biological target: NT-3 growth factor receptor (Homo sapiens) (UniProt Q16288); assay: Residual activity of TRK-C at 10 uM by microplate scintillation counting
[4] = biological target: Insulin receptor (Homo sapiens) (UniProt P06213); assay: Residual activity of INSR at 10 uM by microplate scintillation counting
[5] = biological target: Serine/threonine-protein kinase WNK3 (Homo sapiens) (UniProt Q9BYP7); assay: Residual activity of WNK3 at 0.1 uM by microplate scintillation counting
[6] = biological target: Death-associated protein kinase 3 (Homo sapiens) (UniProt O43293); assay: Residual activity of DAPK3 at 10 uM by microplate scintillation counting
[7] = biological target: T1, Cytoplasmic tyrosine-protein kinase BMX (Homo sapiens) (UniProt P51813); assay: Residual activity of BMX at 10 uM by microplate scintillation counting
T1 sequence (whole entry): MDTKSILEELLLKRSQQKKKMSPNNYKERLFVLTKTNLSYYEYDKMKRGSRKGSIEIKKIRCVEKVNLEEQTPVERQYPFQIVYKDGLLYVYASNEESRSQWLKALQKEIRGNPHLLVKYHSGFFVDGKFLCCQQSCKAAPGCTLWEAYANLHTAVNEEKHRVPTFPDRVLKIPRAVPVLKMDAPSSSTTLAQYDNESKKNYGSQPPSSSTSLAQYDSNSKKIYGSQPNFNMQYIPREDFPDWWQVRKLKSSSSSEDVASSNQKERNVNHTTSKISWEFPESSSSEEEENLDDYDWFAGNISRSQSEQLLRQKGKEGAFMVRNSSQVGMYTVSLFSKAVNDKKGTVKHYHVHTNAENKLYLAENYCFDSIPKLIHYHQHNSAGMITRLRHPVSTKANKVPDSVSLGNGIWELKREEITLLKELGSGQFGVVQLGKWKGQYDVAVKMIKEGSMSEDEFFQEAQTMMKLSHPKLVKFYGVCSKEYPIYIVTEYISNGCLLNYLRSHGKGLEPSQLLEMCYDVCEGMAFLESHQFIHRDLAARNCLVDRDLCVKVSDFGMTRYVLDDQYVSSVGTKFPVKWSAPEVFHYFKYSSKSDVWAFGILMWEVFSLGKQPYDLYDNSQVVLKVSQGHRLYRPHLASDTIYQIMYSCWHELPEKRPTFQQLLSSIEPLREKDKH

[8] = biological target: RAC-alpha serine/threonine-protein kinase (Homo sapiens) (UniProt P31749); assay: Residual activity of AKT1 at 1 uM by microplate scintillation counting
[9] = biological target: Receptor tyrosine-protein kinase erbB-2 (Homo sapiens, UniProt P04626); assay: Residual activity of ERBB2 at 10 uM by microplate scintillation counting
[10] = biological target: Ribosomal protein S6 kinase alpha-6 (Homo sapiens) (UniProt Q9UK32); assay: Residual activity of RPS6KA6 at 1 uM by microplate scintillation counting
[11] = biological target: T2, Ephrin type-B receptor 3 (Homo sapiens) (UniProt P54753); assay: Residual activity of EPHB3 at 0.1 uM by microplate scintillation counting
T2 sequence (whole entry): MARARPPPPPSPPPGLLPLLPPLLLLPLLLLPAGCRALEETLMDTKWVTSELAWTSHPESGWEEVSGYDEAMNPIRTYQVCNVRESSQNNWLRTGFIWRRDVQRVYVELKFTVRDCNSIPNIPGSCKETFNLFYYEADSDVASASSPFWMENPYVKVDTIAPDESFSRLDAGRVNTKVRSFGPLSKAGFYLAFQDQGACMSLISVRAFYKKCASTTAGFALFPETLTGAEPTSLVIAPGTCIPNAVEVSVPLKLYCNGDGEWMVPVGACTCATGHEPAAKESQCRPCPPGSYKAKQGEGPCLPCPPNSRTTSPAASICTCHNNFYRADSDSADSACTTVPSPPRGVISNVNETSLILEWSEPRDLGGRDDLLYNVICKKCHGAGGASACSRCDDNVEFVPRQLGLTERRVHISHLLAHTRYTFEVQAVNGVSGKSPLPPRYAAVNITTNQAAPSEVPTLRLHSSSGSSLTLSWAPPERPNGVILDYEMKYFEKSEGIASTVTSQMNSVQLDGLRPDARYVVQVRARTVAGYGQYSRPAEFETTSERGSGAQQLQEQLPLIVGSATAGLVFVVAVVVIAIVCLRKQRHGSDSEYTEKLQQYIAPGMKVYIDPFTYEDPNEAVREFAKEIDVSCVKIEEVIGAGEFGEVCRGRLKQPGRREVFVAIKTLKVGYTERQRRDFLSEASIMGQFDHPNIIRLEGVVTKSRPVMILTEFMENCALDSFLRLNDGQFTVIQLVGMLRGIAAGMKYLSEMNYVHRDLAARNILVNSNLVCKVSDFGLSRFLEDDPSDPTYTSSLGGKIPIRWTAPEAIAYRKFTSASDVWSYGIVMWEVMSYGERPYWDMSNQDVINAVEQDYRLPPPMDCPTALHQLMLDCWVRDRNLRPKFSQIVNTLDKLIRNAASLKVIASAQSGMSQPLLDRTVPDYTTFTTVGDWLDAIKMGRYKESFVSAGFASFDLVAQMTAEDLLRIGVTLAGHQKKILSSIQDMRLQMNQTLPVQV

[12] = biological target: Serine/threonine-protein kinase PLK2 (Homo sapiens) (UniProt Q9NYY3); assay: Residual activity of SNK at 1 uM by microplate scintillation counting
[13] = biological target: Serine/threonine-protein kinase Chk2 (Homo sapiens) (UniProt O96017); assay: Residual activity of CHK2 at 10 uM by microplate scintillation counting
[14] = biological target: Calcium/calmodulin-dependent protein kinase type II subunit delta (Homo sapiens) (UniProt Q13557); assay: Residual activity of CAMK2D at 10 uM by microplate scintillation counting
[15] = biological target: Vascular endothelial growth factor receptor 1 (Homo sapiens) (UniProt P17948); assay: Residual activity of VEGFR1 at 1 uM by microplate scintillation counting

Sequence of Casein kinase I isoform delta (Homo sapiens) (P48730 whole entry, looked up, canonical isoform): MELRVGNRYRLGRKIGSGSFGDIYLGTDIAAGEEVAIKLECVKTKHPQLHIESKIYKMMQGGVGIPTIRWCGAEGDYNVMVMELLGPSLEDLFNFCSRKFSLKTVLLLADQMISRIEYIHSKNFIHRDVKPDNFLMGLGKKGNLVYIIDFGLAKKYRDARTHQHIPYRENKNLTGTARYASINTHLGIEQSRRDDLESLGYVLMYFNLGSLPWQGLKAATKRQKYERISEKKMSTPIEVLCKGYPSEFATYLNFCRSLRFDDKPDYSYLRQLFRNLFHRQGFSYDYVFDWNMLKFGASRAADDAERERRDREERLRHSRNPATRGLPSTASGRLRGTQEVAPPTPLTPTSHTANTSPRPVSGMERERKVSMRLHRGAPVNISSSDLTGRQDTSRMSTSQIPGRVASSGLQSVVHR
Sequence of RAC-alpha serine/threonine-protein kinase (Homo sapiens) (P31749 whole entry): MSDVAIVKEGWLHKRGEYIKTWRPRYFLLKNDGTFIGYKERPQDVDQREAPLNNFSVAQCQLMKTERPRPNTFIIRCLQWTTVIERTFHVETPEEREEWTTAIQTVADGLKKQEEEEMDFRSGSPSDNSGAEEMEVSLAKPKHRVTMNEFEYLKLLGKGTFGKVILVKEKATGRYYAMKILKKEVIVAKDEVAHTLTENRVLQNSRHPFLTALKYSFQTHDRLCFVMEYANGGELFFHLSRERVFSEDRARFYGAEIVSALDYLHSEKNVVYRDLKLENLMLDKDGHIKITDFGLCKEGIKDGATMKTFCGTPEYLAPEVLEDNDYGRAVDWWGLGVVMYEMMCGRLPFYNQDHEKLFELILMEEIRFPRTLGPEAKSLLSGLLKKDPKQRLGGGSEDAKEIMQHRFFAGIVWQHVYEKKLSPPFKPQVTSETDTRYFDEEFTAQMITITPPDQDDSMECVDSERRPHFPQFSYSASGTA
Sequence of Insulin receptor (Homo sapiens) (P06213 28-758 limits assumed): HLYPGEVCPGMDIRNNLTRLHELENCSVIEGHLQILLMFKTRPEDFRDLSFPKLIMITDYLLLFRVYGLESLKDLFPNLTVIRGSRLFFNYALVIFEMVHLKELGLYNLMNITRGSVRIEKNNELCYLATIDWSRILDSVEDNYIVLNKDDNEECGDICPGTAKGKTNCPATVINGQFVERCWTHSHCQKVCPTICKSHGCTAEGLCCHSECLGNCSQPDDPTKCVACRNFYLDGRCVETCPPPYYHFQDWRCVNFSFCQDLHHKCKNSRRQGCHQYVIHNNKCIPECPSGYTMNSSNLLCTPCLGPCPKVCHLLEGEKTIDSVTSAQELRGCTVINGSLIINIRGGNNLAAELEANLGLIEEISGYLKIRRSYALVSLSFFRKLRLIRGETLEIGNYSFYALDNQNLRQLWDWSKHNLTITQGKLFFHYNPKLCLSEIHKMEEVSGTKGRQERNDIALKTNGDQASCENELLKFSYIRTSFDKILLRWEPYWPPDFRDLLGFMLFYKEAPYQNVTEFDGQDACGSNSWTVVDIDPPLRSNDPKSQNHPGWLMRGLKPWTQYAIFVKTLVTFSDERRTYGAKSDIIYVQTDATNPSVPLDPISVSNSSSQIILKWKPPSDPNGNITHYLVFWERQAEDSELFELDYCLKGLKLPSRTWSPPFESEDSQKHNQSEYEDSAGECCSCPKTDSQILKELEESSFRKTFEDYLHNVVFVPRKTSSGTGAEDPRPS
Sequence of Insulin receptor (Homo sapiens) (P06213 763-1382 limits assumed): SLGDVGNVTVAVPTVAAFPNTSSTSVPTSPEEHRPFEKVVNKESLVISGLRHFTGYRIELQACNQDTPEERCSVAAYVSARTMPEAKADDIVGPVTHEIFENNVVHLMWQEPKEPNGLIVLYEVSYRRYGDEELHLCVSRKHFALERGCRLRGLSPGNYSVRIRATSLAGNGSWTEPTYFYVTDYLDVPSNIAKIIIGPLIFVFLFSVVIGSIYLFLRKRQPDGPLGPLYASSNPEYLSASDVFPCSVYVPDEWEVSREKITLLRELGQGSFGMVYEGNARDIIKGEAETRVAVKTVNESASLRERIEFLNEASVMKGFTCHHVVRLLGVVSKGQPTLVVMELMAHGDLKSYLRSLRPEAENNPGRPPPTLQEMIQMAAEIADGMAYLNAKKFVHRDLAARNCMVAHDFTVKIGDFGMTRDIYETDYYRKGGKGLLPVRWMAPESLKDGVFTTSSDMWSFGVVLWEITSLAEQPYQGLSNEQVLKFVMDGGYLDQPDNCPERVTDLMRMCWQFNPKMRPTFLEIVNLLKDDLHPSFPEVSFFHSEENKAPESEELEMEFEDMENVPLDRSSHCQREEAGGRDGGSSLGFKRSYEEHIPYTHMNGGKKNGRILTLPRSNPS
Sequence of Death-associated protein kinase 3 (Homo sapiens) (O43293 whole entry, looked up): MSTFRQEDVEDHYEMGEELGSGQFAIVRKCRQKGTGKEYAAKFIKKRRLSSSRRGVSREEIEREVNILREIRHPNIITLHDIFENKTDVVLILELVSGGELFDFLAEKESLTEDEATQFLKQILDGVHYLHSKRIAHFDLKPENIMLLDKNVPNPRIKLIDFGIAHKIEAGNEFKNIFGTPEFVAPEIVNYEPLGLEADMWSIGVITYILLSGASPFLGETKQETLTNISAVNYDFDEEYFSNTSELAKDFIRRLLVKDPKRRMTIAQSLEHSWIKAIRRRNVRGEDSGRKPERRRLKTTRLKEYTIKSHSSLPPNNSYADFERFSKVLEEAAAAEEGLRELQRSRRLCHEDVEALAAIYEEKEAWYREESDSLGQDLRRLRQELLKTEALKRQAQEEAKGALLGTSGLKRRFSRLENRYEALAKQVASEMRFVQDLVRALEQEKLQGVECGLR
Sequence of Receptor tyrosine-protein kinase erbB-2 (P04626 whole entry): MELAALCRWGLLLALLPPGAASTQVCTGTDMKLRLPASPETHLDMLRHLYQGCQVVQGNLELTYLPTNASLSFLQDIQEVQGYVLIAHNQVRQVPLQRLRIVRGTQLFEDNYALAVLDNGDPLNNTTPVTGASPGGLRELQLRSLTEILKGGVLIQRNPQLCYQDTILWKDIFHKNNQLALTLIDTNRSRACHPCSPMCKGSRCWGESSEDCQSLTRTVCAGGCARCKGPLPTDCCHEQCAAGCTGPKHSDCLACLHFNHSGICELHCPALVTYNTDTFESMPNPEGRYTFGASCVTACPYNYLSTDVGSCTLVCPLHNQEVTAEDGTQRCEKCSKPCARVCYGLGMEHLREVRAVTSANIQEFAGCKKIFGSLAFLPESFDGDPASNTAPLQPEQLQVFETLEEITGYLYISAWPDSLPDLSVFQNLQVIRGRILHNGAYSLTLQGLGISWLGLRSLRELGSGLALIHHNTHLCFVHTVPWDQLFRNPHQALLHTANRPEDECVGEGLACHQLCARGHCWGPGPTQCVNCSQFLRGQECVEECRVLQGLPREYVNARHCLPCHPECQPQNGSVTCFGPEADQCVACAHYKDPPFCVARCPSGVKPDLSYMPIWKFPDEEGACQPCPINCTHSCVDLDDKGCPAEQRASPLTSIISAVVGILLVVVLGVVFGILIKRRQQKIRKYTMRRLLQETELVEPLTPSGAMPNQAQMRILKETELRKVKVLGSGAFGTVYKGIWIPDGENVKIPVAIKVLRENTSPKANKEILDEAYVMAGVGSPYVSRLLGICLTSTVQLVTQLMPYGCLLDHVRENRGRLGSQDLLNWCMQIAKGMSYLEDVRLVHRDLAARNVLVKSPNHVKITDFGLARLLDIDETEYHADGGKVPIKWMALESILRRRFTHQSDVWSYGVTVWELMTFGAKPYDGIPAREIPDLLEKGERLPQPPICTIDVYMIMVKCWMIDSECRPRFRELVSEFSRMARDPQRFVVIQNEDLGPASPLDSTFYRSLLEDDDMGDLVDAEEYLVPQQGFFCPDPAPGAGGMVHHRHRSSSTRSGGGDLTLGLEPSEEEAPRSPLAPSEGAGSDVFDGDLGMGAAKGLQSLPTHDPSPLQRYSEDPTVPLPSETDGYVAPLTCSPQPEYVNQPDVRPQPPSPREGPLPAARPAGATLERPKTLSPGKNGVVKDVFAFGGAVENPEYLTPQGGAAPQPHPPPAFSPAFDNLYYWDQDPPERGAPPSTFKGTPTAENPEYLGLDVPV
Sequence of Serine/threonine-protein kinase PLK2 (Homo sapiens) (Q9NYY3 whole entry, looked up): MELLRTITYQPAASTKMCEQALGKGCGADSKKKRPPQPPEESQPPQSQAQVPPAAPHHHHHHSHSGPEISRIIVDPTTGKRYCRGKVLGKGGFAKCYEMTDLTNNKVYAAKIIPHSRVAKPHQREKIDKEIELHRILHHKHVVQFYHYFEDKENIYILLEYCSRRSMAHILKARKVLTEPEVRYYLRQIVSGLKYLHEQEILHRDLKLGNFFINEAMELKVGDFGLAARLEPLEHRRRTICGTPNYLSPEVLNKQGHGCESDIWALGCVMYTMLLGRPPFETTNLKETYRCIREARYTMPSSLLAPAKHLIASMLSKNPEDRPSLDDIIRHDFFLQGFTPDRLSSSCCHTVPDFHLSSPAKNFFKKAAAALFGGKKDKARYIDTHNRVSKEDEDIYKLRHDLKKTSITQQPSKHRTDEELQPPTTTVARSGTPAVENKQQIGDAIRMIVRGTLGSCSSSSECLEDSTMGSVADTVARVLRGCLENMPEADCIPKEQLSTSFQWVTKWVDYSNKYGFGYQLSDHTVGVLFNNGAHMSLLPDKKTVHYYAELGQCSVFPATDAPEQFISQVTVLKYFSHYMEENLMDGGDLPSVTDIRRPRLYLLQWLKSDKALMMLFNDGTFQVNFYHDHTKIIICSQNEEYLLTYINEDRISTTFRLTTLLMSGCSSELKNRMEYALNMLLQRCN

SMILES	residual activity [1]	residual activity [2]	residual activity [3]	residual activity [4]	residual activity [5]	residual activity [6]	residual activity [7]	residual activity [8]	residual activity [9]	residual activity [10]	residual activity [11]	residual activity [12]	residual activity [13]	residual activity [14]	residual activity [15]
COc1cc2c(Oc3ccc(-c4nc5ccccc5s4)cc3F)ncnc2cc1OCCCN1CCN(C)CC1	149%	87%	132%	29%	84%	89%	44%	100%	62%	97%	117%	94%	9%	44%	74%
COc1cc2c(Oc3ccc(-c4nc5ccccc5s4)cc3)ncnc2cc1OCCCN1CCCC1	133%	100%	166%	59%	94%	90%	138%	97%	110%	95%	102%	86%	17%	13%	74%
COc1cc2c(Oc3ccc(-c4nc5ccccc5s4)cc3)ncnc2cc1OCCCN1CCN(C)CC1	156%	113%	188%	33%	90%	96%	156%	109%	91%	101%	112%	86%	11%	28%	75%
